Data on one substance can be found in patent US8846308B2, “Method for identifying immune response modulators” (The Trustees of the University of Pennsylvania, priority 2007, dated 2014).

The test system of the experiment is FOXP3. Nature of the experiment: Acetylation of chromatin-bound FOXP3 in HA-FOXP3a/3b transfected Jurkat T cells (immunoblot). In kind it is cell-based, human. The conditions noted are these: 1 ng TGF-β per million cells; serum-starved Jurkat T cells; between 2 and 4 hours after exposure; anti-acetyl lys immunoblot; FIG. 10B. The protocol: FIG. 10B is an image of an immunoblot of untreated and TGF-β treated, human HA-FOXP3a/3b transfected Jurkat T cells. The transfected cells were stimulated with or without 1 ng TGF-β per million cells for indicated time periods. Equal amounts of proteins from chromatin rich fractions were separated by SDS-PAGE, transferred to nitrocellulose, and immunoblotted with anti-acetyl lys specific antibody (Ac-K-103, Santa Cruz) followed by reprobing with anti-HA-HRP conjugated antibody. Acetylated FOXP3a and FOXP3b proteins are marked.
The effect of TGF-β on the acetylation of FOXP3 was examined. Serum-starved human HA-FOXP3a/3b transfected Jurkat T cells were stimulated with or without 1 ng TGF-β per million cells for indicated time periods. Equal amounts of proteins from chromatin rich fractions were separated by SDS-PAGE, transferred to nitrocellulose, and immunoblotted with anti-acetyl lys specific antibody (Ac-K-103, Santa Cruz) followed by reprobing with anti-HA-HRP conjugated antibody (FIG. 9B).

Turning to Transforming Growth Factor-β [TGF-β], the “chromatin-bound acetylated FOXP3” value was “High levels of chromatin-bound acetylated FOXP3”.
